Assay results: patent US9701659B2, “Insecticidally active amide derivatives with sulfur-substituted phenyl or pyridine groups” (Syngenta Participations AG, priority 2014, dated 2017)
Each block holds one compound with its values, some of them ahead of it.

Experiments:
[1] = test system: Spodoptera littoralis (Egyptian cotton leaf worm); test: Example B1: activity against Spodoptera littoralis, larvicide, feeding/residual contact, preventive (cotton leaf discs); assay type: in vivo; conditions: foliar, 72 h, L1 larvae, 3 days after treatment, read-out: activity (mortality, repellent effect, feeding behaviour, growth regulation)
From the text: Activity Against Spodoptera littoralis (Egyptian Cotton Leaf Worm)
(§1) (Larvicide, Feeding/Residual Contact Activity, Preventive)
Cotton leaf discs were placed on agar in a 24-well microtiter plate and sprayed with test solutions. After drying, the leaf discs were infested with 5 L1 larvae. The samples were checked for mortality, repellent effect, feeding behaviour, and growth regulation 3 days after treatment (DAT).

[2] = test system: Diabrotica balteata (corn root worm); test: Example B4: activity against Diabrotica balteata, larvae L2 on maize sprouts, feeding/contact, preventative; assay type: in vivo; conditions: 120 h, 5 days incubation, read-out: activity (larval mortality, growth regulation)
Experimental: Activity Against Diabrotica Balteata (Corn Root Worm)
(Larvae L2 on Maize Sprouts, Feeding/Contact, Preventative)
Maize sprouts, placed on an agar layer in 24 well micro titer plates were treated with test solutions by spraying. After drying, the MTPs were infested with L2 larvae (6-10 per well). After an incubation period of 5 days, samples were checked for larval mortality and growth regulation.

[3] = test system: Myzus persicae (green peach aphid); test: Example B5: activity against Myzus persicae, feeding/residual contact, preventive, mixed population (sunflower leaf discs); assay type: in vivo; conditions: foliar, 144 h, mixed ages, 6 DAT, read-out: activity (mortality, special effects)
Experimental: (§2) Activity Against Myzus persicae (Green Peach Aphid)
(Feeding/Residual Contact Activity, Preventive), Mixed Population
Sunflower leaf discs were placed on agar in a 24-well microtiter plate and sprayed with test solutions. After drying, the leaf discs were infested with an aphid population of mixed ages. After an incubation period of 6 DAT, samples were checked for mortality and special effects (e.g. phytotoxicity).

[4] = test system: Myzus persicae (green peach aphid); test: Example B6: activity against Myzus persicae, feeding activity sachet test, mixed population; assay type: in vivo; conditions: 120 h, 5 days after infestation
From the text: as §2
(Feeding Activity Sachet Test), Mixed Population
Test compounds were applied by pipette into 24 well plates and mixed with Sucrose solution. The plates were closed with a stretched Parafilm. A plastic stencil with 24 holes is placed onto the plate and infested pea seedlings were placed directly on the Parafilm. The infested plate is closed with a gel blotting paper and another plastic stencil and then turned upside down. 5 days after infestation the samples were checked on mortality. Application rate: 12.5 ppm.

[5] = test system: Aedes aegypti (yellow fever mosquito); test: Example B9: activity against Aedes aegypti, adult females on treated plates; assay type: in vivo; conditions: 200 ppm in ethanol; after 48 hours
Experimental: Activity Against Aedes aegypti (Yellow Fever Mosquito)
Test solutions, at an application rate of 200 ppm in ethanol, were applied to 12-well tissue culture plates. Once the deposits were dry, five, two to five days old adult female Aedes aegypti were added to each well, and sustained with a 10% sucrose solution in a cotton wool plug. Assessment of knockdown was made one hour after introduction, and mortality was assessed at 24 and 48 hours after introduction.

[6] = test system: Plutella xylostella (diamond back moth); test: Example B3: activity against Plutella xylostella, larvicide, feeding/residual contact, preventive (artificial diet); assay type: in vivo; conditions: 120 h, L2 larvae, 5 days incubation, read-out: activity (larval mortality, antifeedant, growth regulation)
Experimental: Activity Against Plutella xylostella (Diamond Back Moth)
as §1
24-well microtiter plate (MTP) with artificial diet was treated with test solutions by pipetting. After drying, the MTPs were infested with L2 larvae (10-15 per well). After an incubation period of 5 days, samples were checked for larval mortality, antifeedant and growth regulation.

[7] = test system: Myzus persicae (green peach aphid); test: Example B7: activity against Myzus persicae, systemic/feeding activity, curative, mixed population (pea seedlings); assay type: in vivo; conditions: 144 h, roots in test solution, 6 days after introduction, read-out: activity (mortality, special effects on the plant)
From the text: as §2
(Systemic/Feeding Activity, Curative), Mixed Population
Roots of pea seedlings, infested with an aphid population of mixed ages, were placed directly in the test solutions. 6 days after introduction, samples were checked for mortality and special effects on the plant.

- melting point: 195 to 197 °C
SMILES: CCS(=O)(=O)c1cc(C(F)(F)F)ccc1C(=O)/N=c1\sc(C(F)(F)F)nn1C

- melting point: 123 to 125 °C
SMILES: CCS(=O)(=O)c1cc(C(F)(F)F)cnc1C(=O)/N=c1\sc(C(F)(F)C(F)(F)F)nn1C

- melting point: 153 to 155 °C
SMILES: CCS(=O)(=O)c1cc(C(F)(F)F)cnc1C(=O)/N=c1\cc(C(F)(F)F)ccn1C

- melting point: 167 to 169 °C
SMILES: CCS(=O)(=O)c1cc(C(F)(F)F)cnc1C(=O)/N=c1\ccc(SC(F)(F)F)cn1C

- melting point: 163 to 165 °C
SMILES: CCS(=O)(=O)c1cc(C(F)(F)F)cnc1C(=O)/N=c1\scc(C(F)(F)F)n1C

SMILES: CCS(=O)(=O)c1cc(C(F)(F)F)cnc1C(=O)/N=c1\sc(C(F)(F)F)cn1C [P1, (N)-3-ethylsulfonyl-N-[3-methyl-5-(trifluoromethyl)thiazol-2-ylidene]-5-(trifluoromethyl)pyridine-2-carboxamide]
- mortality at 400 ppm [1]: > 80%
- mortality at 400 ppm [2]: > 80%

SMILES: CCSc1cccnc1C(=O)/N=c1\sc(C(F)(F)F)nn1C [P3, (N)-3-ethylsulfanyl-N-[3-methyl-5-(trifluoromethyl)-1,3,4-thiadiazol-2-ylidene]pyridine-2-carboxamide]
- mortality at 400 ppm [2]: > 80%
- mortality at 400 ppm [3]: > 80%
- mortality at 12.5 ppm [4]: ≥ 80%
- control of Aedes aegypti [5]: at least 80%

SMILES: CCSc1cc(C(F)(F)F)cnc1C(=O)/N=c1\sc(C(F)(F)F)nn1C [P4]
- mortality at 400 ppm [1]: > 80%
- mortality at 400 ppm [6]: > 80%
- mortality at 400 ppm [2]: > 80%

SMILES: CCS(=O)(=O)c1cccnc1C(=O)/N=c1\sc(C(F)(F)F)nn1C [P5, (N)-3-ethylsulfonyl-N-[3-methyl-5-(trifluoromethyl)-1,3,4-thiadiazol-2-ylidene]pyridine-2-carboxamide]
- mortality at 400 ppm [3]: > 80%
- mortality at 24 ppm [7]: ≥ 80%

SMILES: CCS(=O)(=O)c1cc(C(F)(F)F)cnc1C(=O)/N=c1\sc(C(F)(F)F)nn1C [P6]
- mortality at 400 ppm [1]: > 80%
- mortality at 400 ppm [6]: > 80%
- mortality at 400 ppm [2]: > 80%

SMILES: CCS(=O)(=O)c1cc(C(F)(F)F)cnc1C(=O)/N=c1\ccc(C(F)(F)F)nn1C [P9]
- mortality at 400 ppm [3]: > 80%
